Measurements: patent US11371055B2, “Herbicide resistance genes” (CORTEVA AGRISCIENCE LLC, priority 2005, dated 2022)
“And” between values parts separate entries of the source, which are not always exact repeats. Identical values can stand only once.

Legend:
[1] = tested on: untransformed control canola plants; experiment: 2,4-D DMA tolerance, untransformed canola control; format: in vivo, Brassica napus
Source text: Surviving plants were transplanted into 3-inch pots containing Metro Mix media. Surviving plants from T1 progenies, that were selected with 560 g ae/ha 2,4-D, were also transplanted into 3-inch pots filled with Metro Mix soil. At 2-4 leaf stage plants were sprayed with either 280, 560, 1120, or 2240 g ae/ha 2,4-D DMA. Plants were graded at 3 and 14 DAT and compared to untransformed control plants. A sampling of T1 event injury data 14DAT may be seen in Table 30.

KY160 control tobacco = experiment: Elevated 2,4-D DMA rates in greenhouse tobacco, sensitive control; format: in vivo, Nicotiana tabacum
Source text: T1 AAD-12 (v1) plants from an event segregating 3R:1S when selected with 560 g ai/ha Liberty using the same protocol as previously described. T1 AAD-1 (v3) seed was also planted for transformed tobacco controls (see PCT/US2005/014737). Untransformed KY160 was served as the sensitive control. Plants were sprayed using a track sprayer set to 187 L/ha at 140, 560, 2240, 8960, and 35840 g ae/ha 2,4-D DMA and rated 3 and 14 DAT.

[2] = tested on: wildtype Maverick soybeans; experiment: 2,4-D spray application on wildtype soybean; format: in vivo, Glycine max
Source text: Plants that are transferred to the greenhouse can be assayed for the presence of an active PAT gene further with a non-destructive manner by painting a section of leaf of the T0 primary transformant, or progeny thereof, with a glufosinate solution [0.05-2% v/v Liberty Herbicide, preferably 0.25-1.0% (v/v),=500-2000 ppm glufosinate, Bayer Crop Science]. Depending on the concentration used, assessment for glufosinate injury can be made 1-7 days after treatment. Plants can also be tested for 2,4-D tolerance in a non-destructive manner by selective application of a 2,4-D solution in water (0.25-1% v/v commercial 2,4-D dimethylamine salt formulation, preferably 0.5% v/v=2280 ppm 2,4-D ae) to the terminal leaflet of the newly expanding trifoliolate one or two, preferably two, nodes below the youngest emerging trifolioate. This assay allows assessment of 2,4-D sensitive plants 6 hours to several days after application by assessment of leaf flipping or rotation >90 degrees from the plane of the adjacent leaflets. Plants tolerant to 2,4-D will not respond to 2,4-D. To plants will be allowed to self fertilize in the greenhouse to give rise to T1 seed. T1 plants (and to the extent enough T0 plant clones are produced) will be sprayed with a range of herbicide doses to determine the level of herbicide protection afforded by AAD-12 (v1) and PAT genes in transgenic soybean. Rates of 2,4-D used on T0 plants will typically comprise one or two selective rates in the range of 100-1120 g ae/ha using a track sprayer as previously described. T1 plants will be treated with a wider herbicide dose ranging from 50-3200 g ae/ha 2,4-D. Likewise, T0 and T1 plants can be screened for glufosinate resistance by postemergence treatment with 200-800 and 50-3200 g ae/ha glufosinate, respectively. Glyphosate resistance (in plants transformed with constructs that contain EPSPS) or another glyphosate tolerance gene can be assessed in the T1 generation by postemergence applications of glyphosate with a dose range from 280-2240 g ae/ha glyphosate. Analysis of protein expression will occur as described in below. Individual T0 plants were assessed for the presence of the coding region of the gene of interest (AAD-12 (v1) or PAT v6) and copy number. Determination of the inheritance of AAD-12 (v1) will be made using T1 and T2 progeny segregation with respect to herbicide tolerance as described in previous examples.
The screened plants were then sampled for molecular and biochemical analyses for the confirmation of the AAD12 (v1) genes integration, copy number, and their gene expression levels as described below and reported in Table 25.

[3] = tested on: AAD-12 (v1) transformed T0 tobacco events (pDAS1580); experiment: Postemergence herbicide tolerance in T0 tobacco; format: in vivo, Nicotiana tabacum; conditions: 560 g ae/ha fluroxypyr
Source text: T0 plants from each of the 19 events were challenged with a wide range of 2,4-D, triclopyr, or fluroxypyr sprayed on plants that were 3-4 inches tall. Spray applications were made as previously described using a track sprayer at a spray volume of 187 L/ha. 2,4-D dimethylamine salt (Riverside Corp) was applied at 0, 140, 560, or 2240 g ae/ha to representative clones from each event mixed in deionized water. Fluroxypyr was likewise applied at 35, 140, or 560 g ac/ha. Triclopyr was applied at 70, 280, or 1120 g ae/ha. Each treatment was replicated 1-3 times. Injury ratings were recorded 3 and 14 DAT. Every event tested was more tolerant to 2,4-D than the untransformed control line KY160. In several events, some initial auxinic herbicide-related epinasty occurred at doses of 560 g ae/ha 2,4-D or less. Some events were uninjured at 2,4-D applied at 2240 g ac/ha (equivalent to 4× field rate). On the whole, AAD-12 (v1) events were more sensitive to fluroxypyr, followed by triclopyr, and least affected by 2,4-D. The quality of the events with respect to magnitude of resistance was discerned using T0 plant responses to 560 g ae/ha fluroxypyr. Events were categorized into “low” (>40% injury 14 DAT), “medium” (20-40% injury), “high” (<20% injury). Some events were inconsistent in response among replicates and were deemed “variable.”

[4] = Maverick WT individual plants (WT-5, WT-6, WT-7), spray 560 g ae/ha 2,4-D
[5] = Maverick WT individual plants (WT-10, WT-8, WT-9), spray 1120 g ae/ha 2,4-D

## CNC.O=C(O)COc1ccc(Cl)cc1Cl [2,4-D DMA]
[1]; 280 g ae/ha
  Average % injury 14 DAT: 85%
[1]; 560 g ae/ha
  Average % injury 14 DAT: 85%
[1]; 1120 g ae/ha
  Average % injury 14 DAT: 90%
[1]; 2240 g ae/ha
  Average % injury 14 DAT: 95%

## O=C(O)COc1ccc(Cl)cc1Cl [2,4-D, 2,4-dichlorophenoxyacetic acid]
KY160 control tobacco; 2240 g ae/ha 2,4-D
  Average % injury 14 DAT: 95%
KY160 control tobacco; 8960 g ae/ha 2,4-D
  Average % injury 14 DAT: 99%
KY160 control tobacco; 35840 g ae/ha 2,4-D
  Average % injury 14 DAT: 100%
[2]; 560 g ae/ha 2,4-D, 7-14 DAT
  response to herbicide spray application: severely injured
[2]; 1120 g ae/ha 2,4-D
  response to herbicide spray application: killed
[2]; [4]
  % injury 2 DAT: 50% and 70% (2×)
  % injury 7 DAT: 60% and 90% and 80%
  % injury 14 DAT: 60% and 80% (2×)
[2]; [5]
  % injury 2 DAT: 70%
  % injury 7 DAT: 90% and 95% (2×)
  % injury 14 DAT: 100%

## Nc1c(Cl)c(F)nc(OCC(=O)O)c1Cl [Fluroxypyr]
[3]; T0 event 1580[1]-004
  Relative Herbicide Tolerance: High
[3]; T0 event 1580[1]-005
  Relative Herbicide Tolerance: Variable
[3]; T0 event 1580[1]-008
  Relative Herbicide Tolerance: Variable
[3]; T0 event 1580[1]-011
  Relative Herbicide Tolerance: High
[3]; T0 event 1580[1]-015
  Relative Herbicide Tolerance: High
[3]; T0 event 1580[1]-016
  Relative Herbicide Tolerance: High
[3]; T0 event 1580[1]-017
  Relative Herbicide Tolerance: High
[3]; T0 event 1580[1]-018
  Relative Herbicide Tolerance: Variable
[3]; T0 event 1580[1]-019
  Relative Herbicide Tolerance: Variable
[3]; T0 event 1580[1]-022
  Relative Herbicide Tolerance: Variable
[3]; T0 event 1580[1]-023
  Relative Herbicide Tolerance: Variable
[3]; T0 event 1580[1]-024
  Relative Herbicide Tolerance: Variable
[3]; T0 event 1580[1]-026
  Relative Herbicide Tolerance: Variable
[3]; T0 event 1580[1]-027
  Relative Herbicide Tolerance: Low
[3]; T0 event 1580[1]-029
  Relative Herbicide Tolerance: Variable
[3]; T0 event 1580[1]-030
  Relative Herbicide Tolerance: High
[3]; T0 event 1580[1]-031
  Relative Herbicide Tolerance: High
[3]; T0 event 1580[1]-032
  Relative Herbicide Tolerance: High
